# Results reported in patent US8674113B2, “Compounds” (Boehringer Ingelheim International GmbH, priority 2010, dated 2014).
# How the values were obtained:
# mPGES-1 in A549 cells = mPGES-1 in A549 cells (Homo sapiens (Human), UniProt O14684); experiment: A549 cell-based assay (PGE2 formation, 50% human serum); details: IL-1β 5 ng/ml, 10 nM arachidonic acid, 20-24 h, read-out: mPGES-1 inhibitory effect IC50 in the cell assay
# Summary of the method: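 PGE2 release, read by HTRF and set to 100% for vehicle, gave IC50s from 6-8 point titrations. Human A549 cells were exposed to compound for 20-24 h in medium with 50% human serum, with IL-1β (5 ng/ml) and arachidonic acid (10 nM) as stimulus.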
# [1] = molecular target: recombinant human mPGES-1 (Homo sapiens (Human), UniProt O14684); experiment: mPGES-1 enzyme assay (HTRF detection of PGE2); format: biochemical; details: recombinant human mPGES-1 microsomes, PGH2 2 μM, 60 seconds; read-out: mPGES-1 inhibitory effect IC50 in the enzyme assay
# recombinant human mPGES-1, sequence (O14684 whole entry): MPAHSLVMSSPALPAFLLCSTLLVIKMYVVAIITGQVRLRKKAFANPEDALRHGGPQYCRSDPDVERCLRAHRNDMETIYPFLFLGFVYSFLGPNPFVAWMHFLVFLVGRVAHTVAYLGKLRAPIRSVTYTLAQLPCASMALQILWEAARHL
# Summary of the method: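 Microsomes from E. coli expressing recombinant human mPGES-1 (~0.5 μg protein/well) in 0.1 M phosphate pH 7.4 with 2.5 mM GSH, pre-incubated with compound 25 min at room temperature. PGH2 (2 μM final) added, reaction stopped with FeCl2 after 60 s; PGE2 quantified by HTRF (665/620 ratio) against a calibration curve, IC50 by nonlinear regression after background subtraction.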
# mPGES-1 in A549 cells, sequence (O14684 whole entry): as above
Compound,IC50 (mPGES-1 in A549 cells) [nM],IC50 [1] [nM]
"Cn1c(Nc2c(Cl)ccc(CNC(=O)C(C)(C)F)c2Cl)nc2cc(C(=O)Nc3ccc(F)c(Cl)c3)c(N3CCC(C(F)(F)F)CC3)cc21 [Example 231, N-(3-Chloro-4-fluoro-phenyl)-2-{2,6-dichloro-3-[(2-fluoro-2-methyl-propionylamino)-methyl]-phenylamino}-6-[4-trifluoromethyl-piperidinyl]-1-methyl-1H-benzimidazole-5-carboxylic acid amide]",1.1,2
Cn1c(Nc2c(Cl)ccc(CNC(=O)C(C)(C)C(F)(F)F)c2Cl)nc2cc(C(=O)Nc3ccc(F)c(Cl)c3)c(N3CCC(C(F)(F)F)CC3)cc21 [Example 232],1.4,1.7
Cn1c(Nc2c(Cl)ccc(CNC(=O)[C@@](C)(O)C(F)(F)F)c2Cl)nc2cc(C(=O)Nc3ccc(F)c(Cl)c3)c(N3CCC(C(F)(F)F)CC3)cc21 [Example 233],1,3.9
Cn1c(Nc2c(Cl)ccc(CNC(=O)[C@](C)(O)C(F)(F)F)c2Cl)nc2cc(C(=O)Nc3ccc(F)c(Cl)c3)c(N3CCC(C(F)(F)F)CC3)cc21 [Example 234],8,3.1
Cn1c(Nc2c(Cl)ccc(CNC(=O)C(C)(C)F)c2Cl)nc2cc(C(=O)Nc3ccc(F)c(Cl)c3)c(N3CC[C@@H](F)C3)cc21 [Example 235],4.4,3.9
Cn1c(Nc2c(Cl)ccc(CNC(=O)C(C)(C)C(F)(F)F)c2Cl)nc2cc(C(=O)Nc3ccc(F)c(Cl)c3)c(N3CC[C@@H](F)C3)cc21 [Example 236],2,3.3
Cn1c(Nc2c(Cl)ccc(CNC(=O)C(C)(C)F)c2Cl)nc2cc(C(=O)Nc3ccc(OC(F)(F)F)cc3)c(N3CCC(C(F)(F)F)CC3)cc21 [Example 237],< 1,1.8
Cn1c(Nc2c(Cl)ccc(CNC(=O)C(C)(C)C(F)(F)F)c2Cl)nc2cc(C(=O)Nc3ccc(OC(F)(F)F)cc3)c(N3CCC(C(F)(F)F)CC3)cc21 [Example 238],2,2.2
Cn1c(Nc2c(Cl)ccc(CNC(=O)C(C)(C)F)c2Cl)nc2cc(C(=O)Nc3ccc(OC(F)(F)F)cc3)c(N3CC[C@@H](F)C3)cc21 [Example 239],5,3.5

# More lines, now with the values ahead:
IC50 (mPGES-1 in A549 cells) [nM],IC50 [1] [nM],Compound
2,4.9,Cn1c(Nc2c(Cl)ccc(CNC(=O)C(C)(C)C(F)(F)F)c2Cl)nc2cc(C(=O)Nc3ccc(OC(F)(F)F)cc3)c(N3CC[C@@H](F)C3)cc21 [Example 240]
< 1,3.5,Cn1c(Nc2c(Cl)ccc(CNC(=O)C(C)(C)C)c2Cl)nc2cc(C(=O)Nc3ccc(OC(F)(F)F)cc3)c(N3CC[C@@H](F)C3)cc21 [Example 241]
5,1.7,Cn1c(Nc2c(Cl)ccc(CNC(=O)C(C)(C)F)c2Cl)nc2cc(C(=O)Nc3cccc(C(F)(F)F)n3)c(N3CCC(C(F)(F)F)CC3)cc21 [Example 242]
4.5,2.9,Cn1c(Nc2c(Cl)ccc(CNC(=O)[C@@](C)(O)C(F)(F)F)c2Cl)nc2cc(C(=O)Nc3cccc(C(F)(F)F)n3)c(N3CCC(C(F)(F)F)CC3)cc21 [Example 243]
27,4.2,Cn1c(Nc2c(Cl)ccc(CNC(=O)[C@](C)(O)C(F)(F)F)c2Cl)nc2cc(C(=O)Nc3cccc(C(F)(F)F)n3)c(N3CCC(C(F)(F)F)CC3)cc21 [Example 244]
2.4,3.8,Cn1c(Nc2c(Cl)ccc(CNC(=O)C(C)(C)C)c2Cl)nc2cc(C(=O)Nc3cccc(C(F)(F)F)n3)c(N3CC[C@@H](F)C3)cc21 [Example 245]
1.5,2.9,Cn1c(Nc2c(Cl)ccc(CNC(=O)C(C)(C)C)c2Cl)nc2cc(C(=O)Nc3ccc(F)c(Cl)c3)c(N3CC[C@@H](F)C3)cc21 [Example 246]
3,3,Cn1c(Nc2c(Cl)ccc(CNC(=O)[C@@](C)(O)C(F)(F)F)c2Cl)nc2cc(C(=O)Nc3ccc(F)c(Cl)c3)c(N3CC[C@@H](F)C3)cc21 [Example 247]
